Measured values taken from patent publication US11059780B2, “Substituted pyrrolidine compound and use thereof” (Takeda Pharmaceutical Company Limited, priority 2017, dated 2021).

The molecules below were run against T1, human orexin type 2 receptor (hOX2R) (Homo sapiens, UniProt O43614) (assay: Measurement of orexin type 2 receptor agonist activity (Fluo-4 calcium fluorescence, CHO cells forcibly expressing human OX2 receptor)). Conditions: test compound 3 μM, DMSO = 0%, orexin A (human) 10 nM = 100%.
T1 construct: expressed in transfected cells
T1 sequence (O43614 1-444): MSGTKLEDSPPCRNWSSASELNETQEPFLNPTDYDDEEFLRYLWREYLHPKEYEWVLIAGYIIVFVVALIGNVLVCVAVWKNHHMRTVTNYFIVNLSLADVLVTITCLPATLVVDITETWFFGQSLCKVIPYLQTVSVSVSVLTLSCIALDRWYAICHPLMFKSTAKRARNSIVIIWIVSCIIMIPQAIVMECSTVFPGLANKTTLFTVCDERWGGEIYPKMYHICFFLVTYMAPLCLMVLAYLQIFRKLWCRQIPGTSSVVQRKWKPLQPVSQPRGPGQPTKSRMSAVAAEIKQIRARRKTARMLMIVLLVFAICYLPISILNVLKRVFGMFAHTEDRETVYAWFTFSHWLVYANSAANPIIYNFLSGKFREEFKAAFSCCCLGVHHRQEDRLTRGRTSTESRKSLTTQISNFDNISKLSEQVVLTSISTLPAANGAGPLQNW
Type: cell-based
From the text: Experimental Example 1: Obtainment of Cell Stably Expressing Human Orexin Type 2 Receptor (hOX2R)
To obtain a cell clone stably expressing human orexin type 2 receptor, human orexin type 2 receptor cDNA was inserted into pcDNA3.1(+) plasmid vector (Invitrogen), and a plasmid DNA for expression of human orexin type 2 receptor (pcDNA3.1(+)/hOX2R) was cloned. The plasmid DNA was introduced into CHO-dhfr cell by an electroporation method, and human orexin type 2 receptor expressing clone cells were obtained by limiting dilution method by using G418 drug resistance as a selection marker.
Experimental Example 2: Measurement of Orexin Type 2 Receptor Agonist Activity
CHO cells forcibly expressing human OX2 receptor were seeded in each well of 384 well black transparent bottom plate (BD Falcon) at 7,500 cells/well, and cultured for one day in a 5% CO2 incubator at 37° C. After removal of the medium in the cell plate, assay buffer A containing a calcium indicator (HBSS (Life Technologies), 20 mM HEPES (Life Technologies), 0.1% BSA (Wako Pure Chemical Industries, Ltd.), 2.5 μg/mL Fluo-4 AM (DOJINDO Chemical), 0.08% Pluronic F127 (DOJINDO Chemical), 1.25 mM probenecid (DOJINDO Chemical)) was added at 30 μL/well. The plate was stood for 30 min in a 5% CO2 incubator at 37° C., and further stood at room temperature for 30 min. A test compound prepared by diluting with assay buffer B (HBSS, 20 mM HEPES, 0.1% BSA) was added at 10 μL/well, and the fluorescence value was measured by FDSSpCELL (Hamamatsu Photonics K.K.) every one sec for 1 min, and thereafter every two sec for 1 min 40 sec. The activity (%) of the test compound was calculated assuming that variation in the fluorescence value when DMSO was added instead of the test compound was 0% […], and variation in the fluorescence value when orexin A (human) (PEPTIDE INSTITUTE, INC.) was added at the final concentration of 10 nM was 100% […]. The activity of each compound at the concentration of 3 μM was shown below.
With `COC1CN(C(=O)c2cc(C)ccc2C)CC1Oc1cccc(NS(=O)(=O)N2CC[C@H]3CCN(C)C[C@@H]32)c1` (relative stereo) [Example 76, trans-N-(3-((1-(2,5-dimethylbenzoyl)-4-methoxypyrrolidin-3-yl)oxy)phenyl)-6-methyloctahydro-1H-pyrrolo[2,3-c]pyridine-1-sulfonamide] the “OX2R agonist activity (3 μM, %)” value was 82%. With `COC1CN(C(=O)c2cc(C)ccc2C)CC1Oc1cccc(NS(=O)(=O)N2C[C@@H]3CC[C@@H](C2)O3)c1` (relative stereo) [Example 80, trans-N-(3-((1-(2,5-dimethylbenzoyl)-4-methoxypyrrolidin-3-yl)oxy)phenyl)-8-oxa-3-azabicyclo[3.2.1]octane-3-sulfonamide] the “OX2R agonist activity (3 μM, %)” value was 94%. `COc1ccccc1C1CCCN1S(=O)(=O)Cc1cccc(O[C@@H]2CN(C(=O)c3cc(C)ccc3C)C[C@H]2OC)c1` (relative stereo) [Example 83, trans-(2,5-dimethylphenyl)(3-methoxy-4-(3-(((2-(2-methoxyphenyl)pyrrolidin-1-yl)sulfonyl)methyl)phenoxy)pyrrolidin-1-yl)methanone] was tested, and the “OX2R agonist activity (3 μM, %)” value was 75%. In the case of `CO[C@@H]1CN(C(=O)c2cc(C)ccc2C)C[C@H]1Oc1ccc(F)c(CS(=O)(=O)N2CCCC2c2ccccn2)c1` (relative stereo) [Example 87, trans-(2,5-dimethylphenyl)(3-(4-fluoro-3-(((2-(pyridin-2-yl)pyrrolidin-1-yl)sulfonyl)methyl)phenoxy)-4-methoxypyrrolidin-1-yl)methanone], the “OX2R agonist activity (3 μM, %)” value is reported as 67%. In the case of `CO[C@@H]1CN(C(=O)c2cc(C)ccc2C)C[C@H]1Oc1cccc(CS(=O)(=O)N2CCC23CN(C(C)=O)C3)c1` (relative stereo) [Example 90, trans-1-(1-((3-((1-(2,5-dimethylbenzoyl)-4-methoxypyrrolidin-3-yl)oxy)benzyl)sulfonyl)-1,6-diazaspiro[3.3]hept-6-yl)ethanone], the “OX2R agonist activity (3 μM, %)” value is reported as 96%. In the case of `CO[C@@H]1CN(C(=O)c2cc(C)ccc2C)C[C@H]1Oc1cc(F)cc(CS(=O)(=O)N2CCCC2c2ccccn2)c1` (relative stereo) [Example 91, trans-(2,5-dimethylphenyl)(3-(3-fluoro-5-(((2-(pyridin-2-yl)pyrrolidin-1-yl)sulfonyl)methyl)phenoxy)-4-methoxypyrrolidin-1-yl)methanone], the “OX2R agonist activity (3 μM, %)” value is reported as 70%. In the case of `COc1cccc(OC)c1C(=O)N1C[C@@H](OC)[C@H](Oc2cccc(CS(=O)(=O)N3CCCC3c3ccccn3)c2)C1` (relative stereo) [Example 100, trans-(2,6-dimethoxyphenyl)(3-methoxy-4-(3-(((2-(pyridin-2-yl)pyrrolidin-1-yl)sulfonyl)methyl)phenoxy)pyrrolidin-1-yl)methanone], the “OX2R agonist activity (3 μM, %)” value is reported as 93%. In the case of `COc1ccc(Cl)cc1C(=O)N1C[C@@H](OC)[C@H](Oc2cccc(CS(=O)(=O)N3CCCC3c3ccccn3)c2)C1` (relative stereo) [Example 108, trans-(5-chloro-2-methoxyphenyl)(3-methoxy-4-(3-(((2-(pyridin-2-yl)pyrrolidin-1-yl)sulfonyl)methyl)phenoxy)pyrrolidin-1-yl)methanone], the “OX2R agonist activity (3 μM, %)” value is reported as 74%. In the case of `CO[C@@H]1CN(C(=O)c2cc(C)ccc2C)C[C@H]1Oc1cccc(C(F)S(=O)(=O)N2CCCC2c2ccccn2)c1` (relative stereo) [Example 110, trans-(2,5-dimethylphenyl)(3-(3-(fluoro((2-(pyridin-2-yl)pyrrolidin-1-yl)sulfonyl)methyl)phenoxy)-4-methoxypyrrolidin-1-yl)methanone], the “OX2R agonist activity (3 μM, %)” value is reported as 67%. For `CO[C@@H]1CN(C(=O)c2cc(C)ccc2C)C[C@H]1Oc1cccc(CS(=O)(=O)N2CCCC2c2ccc(C)nc2)c1` (relative stereo) [Example 112, trans-(2,5-dimethylphenyl)(3-methoxy-4-(3-(((2-(6-methylpyridin-3-yl)pyrrolidin-1-yl)sulfonyl)methyl)phenoxy)pyrrolidin-1-yl)methanone], the “OX2R agonist activity (3 μM, %)” value was 77%. `CO[C@@H]1CN(C(=O)c2cc(C)ccc2C)C[C@H]1Oc1cccc(CS(=O)(=O)N2CCCC2c2cccnc2C)c1` (relative stereo) [Example 114, trans-(2,5-dimethylphenyl)(3-methoxy-4-(3-(((2-(2-methylpyridin-3-yl)pyrrolidin-1-yl)sulfonyl)methyl)phenoxy)pyrrolidin-1-yl)methanone] was tested, and the “OX2R agonist activity (3 μM, %)” value was 100%. `COC1CN(C(=O)c2cc(C)ccc2C)CC1Oc1cc(NS(=O)(=O)N2C[C@@H]3C[C@H]3C2)cc(F)n1` (relative stereo) [Example 116, trans-N-(2-((1-(2,5-dimethylbenzoyl)-4-methoxypyrrolidin-3-yl)oxy)-6-fluoropyridin-4-yl)-3-azabicyclo[3.1.0]hexane-3-sulfonamide] was tested, and the “OX2R agonist activity (3 μM, %)” value was 68%. With `COC1CN(C(=O)c2cc(C)ccc2C)CC1Oc1cc(NS(=O)(=O)N2C[C@@H]3C[C@H]3C2)cc(C)n1` (relative stereo) [Example 117, trans-N-(2-((1-(2,5-dimethylbenzoyl)-4-methoxypyrrolidin-3-yl)oxy)-6-methylpyridin-4-yl)-3-azabicyclo[3.1.0]hexane-3-sulfonamide] the “OX2R agonist activity (3 μM, %)” value was 93%. In the case of `COc1cccc(C)c1C(=O)N1C[C@@H](OC)[C@H](Oc2cccc(CS(=O)(=O)N3CCCC3c3ccccn3)c2)C1` (relative stereo) [Example 119, trans-(2-methoxy-6-methylphenyl)(3-methoxy-4-(3-(((2-(pyridin-2-yl)pyrrolidin-1-yl)sulfonyl)methyl)phenoxy)pyrrolidin-1-yl)methanone], the “OX2R agonist activity (3 μM, %)” value is reported as 100%. For `CO[C@@H]1CN(C(=O)c2cc(C)ccc2C)C[C@H]1Oc1cccc(CS(=O)(=O)N2CCCC2c2ccc(C)nc2C)c1` (relative stereo) [Example 123, trans-(2,5-dimethylphenyl)(3-(3-(((2-(2,6-dimethylpyridin-3-yl)pyrrolidin-1-yl)sulfonyl)methyl)phenoxy)-4-methoxypyrrolidin-1-yl)methanone], the “OX2R agonist activity (3 μM, %)” value was 102%. With `CCc1cccc(C)c1C(=O)N1C[C@@H](OC)[C@H](Oc2cccc(CS(=O)(=O)N(C)C3CCOC(C)(C)C3)c2)C1` (relative stereo) [Example 140, trans-N-(2,2-dimethyltetrahydro-2H-pyran-4-yl)-1-(3-((1-(2-ethyl-6-methylbenzoyl)-4-methoxypyrrolidin-3-yl)oxy)phenyl)-N-methylmethanesulfonamide] the “OX2R agonist activity (3 μM, %)” value was 109%. With `COC1CN(C(=O)c2cc(C)ccc2C)CC1Oc1cccc(CS(=O)(=O)N(C)[C@@H]2CCOC[C@H]2F)c1` (relative stereo) [Example 142, trans-1-(3-((1-(2,5-dimethylbenzoyl)-4-methoxypyrrolidin-3-yl)oxy)phenyl)-N-(3-fluorotetrahydro-2H-pyran-4-yl)-N-methylmethanesulfonamide] the “OX2R agonist activity (3 μM, %)” value was 115%. `CO[C@@H]1CN(C(=O)c2cc(C)ccc2C)C[C@H]1Oc1cccc(C(C)S(=O)(=O)N(C)C2CCOCC2)c1` (relative stereo) [Example 143, trans-1-(3-((1-(2,5-dimethylbenzoyl)-4-methoxypyrrolidin-3-yl)oxy)phenyl)-N-methyl-N-(tetrahydro-2H-pyran-4-yl)ethanesulfonamide] was tested, and the “OX2R agonist activity (3 μM, %)” value was 92%.
